Reference: patent publication US6444617B1, “Fused-heterocycle dicarboxylic acid diamide derivatives or salts thereof, herbicide and usage thereof” (Nihon Nohyaku Co., Ltd., priority 1998, dated 2002)

Legend:
Assay type in all cases: in vivo
wheat (Wh) = assay: Test Example 3: phytotoxicity to upland crop plants, treatment before emergence; conditions: dosage 5 kg/ha
Summary of the method: (§1)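 Compound formulated as a liquid agent at a prescribed concentration is sprayed before crop emergence. After fourteen days, damage to soybean and wheat is examined and rated by a judgment criterion.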

soybean plant (So) = assay: as above; conditions: dosage 5 kg/ha
Summary of the method: as §1

[1] = test system: barnyard grass (Echinochloa crus-galli Beauv.), Ec; assay: Test Example 4: herbicidal effect on upland weeds after emergence; conditions: dosage 5 kg/ha; sprayed after emergence; judged 14 days after treatment
Summary of the method: (§2)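 Scores of weed-killing rate, with crop phytotoxicity, come from inspection 14 days after plants in soil vats, grown to specified leaf stages, are sprayed with a formulation holding the compound at a prescribed concentration.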

[2] = test system: bird's eye speedwell (Veronica persica Poir.), Vp; assay: as above; conditions: dosage 5 kg/ha; sprayed after emergence; judged 14 days after treatment
Summary of the method: as §2

[3] = test system: cleavers (Galium aparine L.), Ga; assay: as above; conditions: dosage 5 kg/ha; sprayed after emergence; judged 14 days after treatment
Summary of the method: as §2

[4] = test system: forxtail grass (Alopecurus aequalis var. amurensis Ohwi), Am; assay: as above; conditions: dosage 5 kg/ha; sprayed after emergence; judged 14 days after treatment
Summary of the method: as §2

[5] = test system: velvetleaf (Abutilon theophtasti L.), At; assay: as above; conditions: dosage 5 kg/ha; sprayed after emergence; judged 14 days after treatment
Summary of the method: as §2

[6] = test system: cocklebur (Xanthium strumarium L.), Xs; assay: as above; conditions: dosage 5 kg/ha; sprayed after emergence; judged 14 days after treatment
Summary of the method: as §2

[7] = test system: barnyard grass (Echinochloa crus-galli Beauv.); assay: Test Example 2: herbicidal effect on paddy field weeds after emergence; conditions: Dosage 5 kg/ha; one-leaved stage; 21 days after treatment
Summary of the method: (§3)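 Weeds were sown in 1/10000 are pots of soil flooded to paddy conditions and grown to the one-leaf stage, then the soil was treated with a solution of compound at a predetermined dosage.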

[8] = test system: bulrush (Scirpus juncoides Roxb.); assay: as above; conditions: Dosage 5 kg/ha; one-leaved stage; 21 days after treatment
Summary of the method: as §3

[9] = test system: monochoria (Monochoria vaginalis Presl); assay: as above; conditions: Dosage 5 kg/ha; one-leaved stage; 21 days after treatment
Summary of the method: as §3

[10] = test system: barnyard grass (Echinochloa crus-galli Beauv.), Ec; assay: Test Example 3: herbicidal effect on upland weeds before emergence; conditions: dosage 5 kg/ha
Summary of the method: (§4)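 Test compound, formulated as a liquid at a fixed concentration, is sprayed before weed emergence. Two weeks later, kill rate is derived and herbicidal activity is rated.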

[11] = test system: bird's eye speedwell (Veronica persica Poir.), Vp; assay: as above; conditions: dosage 5 kg/ha
Summary of the method: as §4

[12] = test system: cleavers (Galium aparine L.), Ga; assay: as above; conditions: dosage 5 kg/ha
Summary of the method: as §4

[13] = test system: forxtail grass (Alopecurus aequalis var. amurensis Ohwi), Am; assay: as above; conditions: foxtail grass, dosage 5 kg/ha
Summary of the method: as §4

[14] = test system: velvetleaf (Abutilon theophtasti L.), At; assay: as above; conditions: dosage 5 kg/ha
Summary of the method: as §4

[15] = test system: cocklebur (Xanthium strumarium L.), Xs; assay: as above; conditions: dosage 5 kg/ha
Summary of the method: as §4

soybean plant = assay: Test Example 4: phytotoxicity to upland crop plants, treatment after emergence; conditions: dosage 5 kg/ha, sprayed after emergence, judged 14 days after treatment
Summary of the method: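 Weeds and soybean grown in soil-filled vats to set leaf stages, then sprayed post-emergence with the compound at a prescribed concentration. Weed-killing rate and crop phytotoxicity judged 14 days after treatment.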

wheat = assay: as above; conditions: dosage 5 kg/ha, sprayed after emergence, judged 14 days after treatment
Summary of the method: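 Seeds sown in soil and covered. Plants raised to specified leaf stages. Agent with test compound at a prescribed concentration sprayed. Herbicidal effect and crop damage scored after 14 days as weed-killing rate.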

[16] = test system: barnyard grass (Echinochloa crus-galli Beauv.); assay: Test Example 1: herbicidal effect on paddy field weeds before emergence; conditions: Dosage 5 kg/ha
Summary of the method: (§5)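 Seeds of both weeds, still ungerminated, in soil pots held under paddy conditions received a set dose of test solution as soil treatment. After twenty-one days, control relative to untreated pots was calculated and rated on a scoring scale.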

[17] = test system: bulrush (Scirpus juncoides Roxb.); assay: as above; conditions: Dosage 5 kg/ha
Summary of the method: as §5

`CCCNC(=O)c1nc2scc(Br)c2cc1C(=O)Nc1c(CC)ccc(Cl)c1CC` [compound 814] was tested, and the “Phytotoxicity Wh” value (wheat (Wh)) was 4 (Crop-killing rate is 90-99%.), the “Phytotoxicity So” value (soybean plant (So)) was 3 (Crop-killing rate is 70-89%.) and the “Herbicidal effect Ec” value [1] was 5 (Weed-killing rate is 100%.). For the same compound, the “Herbicidal effect Vp” value [2] was 5 (Weed-killing rate is 100%.), the “Herbicidal effect Ga” value [3] was 4 (Weed-killing rate is 90-99%.) and the “Herbicidal effect Am” value [4] was 5 (Weed-killing rate is 100%.). For the same compound, the “Herbicidal effect At” value [5] was 5 (Weed-killing rate is 100%.), the “Herbicidal effect Xs” value [6] was 4 (Weed-killing rate is 90-99%.) and the “Post-emergence treatment Barnyard grass (herbicidal effect)” value (“Post-emergence treatment Barnyard grass” below) [7] was 5 (Weed-killing rate is 100%.). The “Post-emergence treatment Bulrush (herbicidal effect)” value (“Post-emergence treatment Bulrush” for short) [8] was 5 (Weed-killing rate is 100%.), the “Post-emergence treatment Monochoria (herbicidal effect)” value (shortened to “Post-emergence treatment Monochoria”) [9] was 5 (Weed-killing rate is 100%.) and the “Herbicidal effect Ec” value [10] was 5 (Weed-killing rate is 100%.). The “Herbicidal effect Vp” value [11] was 5 (Weed-killing rate is 100%.), the “Herbicidal effect Ga” value [12] was 4 (Weed-killing rate is 90-99%.) and the “Herbicidal effect Am” value [13] was 5 (Weed-killing rate is 100%.). The “Herbicidal effect At” value [14] was 5 (Weed-killing rate is 100%.), the “Herbicidal effect Xs” value [15] was 4 (Weed-killing rate is 90-99%.) and the “Phytotoxicity So” value (soybean plant) was 3 (Crop-killing rate is 70-89%.). The “Phytotoxicity Wh” value (wheat) was 4 (Crop-killing rate is 90-99%.), the “Pre-emergence treatment Barnyard grass (herbicidal effect)” value (shortened to “Pre-emergence treatment Barnyard grass”) [16] was 5 (Weed-killing rate is 100%.) and the “Pre-emergence treatment Bulrush (herbicidal effect)” value (from here on “Pre-emergence treatment Bulrush”) [17] was 5 (Weed-killing rate is 100%.).

For `CCCNC(=O)c1nc2c(ccn2C)cc1C(=O)Nc1c(CC)ccc(Cl)c1CC` [compound 824], the “Phytotoxicity Wh” value (wheat (Wh)) was 5 (Crop-killing rate is 100%.), the “Phytotoxicity So” value (soybean plant (So)) was 5 (Crop-killing rate is 100%.) and the “Herbicidal effect Ec” value [1] was 5 (Weed-killing rate is 100%.). The “Herbicidal effect Vp” value [2] was 5 (Weed-killing rate is 100%.), the “Herbicidal effect Ga” value [3] was 5 (Weed-killing rate is 100%.) and the “Herbicidal effect Am” value [4] was 5 (Weed-killing rate is 100%.). For the same compound, the “Herbicidal effect At” value [5] was 5 (Weed-killing rate is 100%.), the “Herbicidal effect Xs” value [6] was 5 (Weed-killing rate is 100%.) and the “Post-emergence treatment Barnyard grass” value [7] was 5 (Weed-killing rate is 100%.). For the same compound, the “Post-emergence treatment Bulrush” value [8] was 5 (Weed-killing rate is 100%.), the “Post-emergence treatment Monochoria” value [9] was 5 (Weed-killing rate is 100%.) and the “Herbicidal effect Ec” value [10] was 5 (Weed-killing rate is 100%.). The “Herbicidal effect Vp” value [11] was 5 (Weed-killing rate is 100%.), the “Herbicidal effect Ga” value [12] was 5 (Weed-killing rate is 100%.) and the “Herbicidal effect Am” value [13] was 5 (Weed-killing rate is 100%.). The “Herbicidal effect At” value [14] was 5 (Weed-killing rate is 100%.), the “Herbicidal effect Xs” value [15] was 5 (Weed-killing rate is 100%.) and the “Phytotoxicity So” value (soybean plant) was 4 (Crop-killing rate is 90-99%.). For the same compound, the “Phytotoxicity Wh” value (wheat) was 5 (Crop-killing rate is 100%.), the “Pre-emergence treatment Barnyard grass” value [16] was 5 (Weed-killing rate is 100%.) and the “Pre-emergence treatment Bulrush” value [17] was 5 (Weed-killing rate is 100%.).

With `CCCNC(=O)c1nc2cscc2cc1C(=O)Nc1c(CC)ccc(Cl)c1CC` [compound 836] the “Phytotoxicity Wh” value (wheat (Wh)) was 5 (Crop-killing rate is 100%.), the “Phytotoxicity So” value (soybean plant (So)) was 4 (Crop-killing rate is 90-99%.) and the “Herbicidal effect Ec” value [1] was 5 (Weed-killing rate is 100%.). For the same compound, the “Herbicidal effect Vp” value [2] was 5 (Weed-killing rate is 100%.), the “Herbicidal effect Ga” value [3] was 5 (Weed-killing rate is 100%.) and the “Herbicidal effect Am” value [4] was 5 (Weed-killing rate is 100%.). The “Herbicidal effect At” value [5] was 5 (Weed-killing rate is 100%.), the “Herbicidal effect Xs” value [6] was 5 (Weed-killing rate is 100%.) and the “Post-emergence treatment Barnyard grass” value [7] was 5 (Weed-killing rate is 100%.). For the same compound, the “Post-emergence treatment Bulrush” value [8] was 5 (Weed-killing rate is 100%.), the “Post-emergence treatment Monochoria” value [9] was 5 (Weed-killing rate is 100%.) and the “Herbicidal effect Ec” value [10] was 5 (Weed-killing rate is 100%.). The “Herbicidal effect Vp” value [11] was 5 (Weed-killing rate is 100%.), the “Herbicidal effect Ga” value [12] was 5 (Weed-killing rate is 100%.) and the “Herbicidal effect Am” value [13] was 5 (Weed-killing rate is 100%.). For the same compound, the “Herbicidal effect At” value [14] was 5 (Weed-killing rate is 100%.), the “Herbicidal effect Xs” value [15] was 5 (Weed-killing rate is 100%.) and the “Phytotoxicity So” value (soybean plant) was 4 (Crop-killing rate is 90-99%.). For the same compound, the “Phytotoxicity Wh” value (wheat) was 5 (Crop-killing rate is 100%.), the “Pre-emergence treatment Barnyard grass” value [16] was 5 (Weed-killing rate is 100%.) and the “Pre-emergence treatment Bulrush” value [17] was 5 (Weed-killing rate is 100%.).

With `CCCNC(=O)c1nc2ccoc2cc1C(=O)Nc1c(CC)ccc(Cl)c1CC` [compound 847] the “Phytotoxicity Wh” value (wheat (Wh)) was 5 (Crop-killing rate is 100%.), the “Phytotoxicity So” value (soybean plant (So)) was 4 (Crop-killing rate is 90-99%.) and the “Herbicidal effect Ec” value [1] was 5 (Weed-killing rate is 100%.). The “Herbicidal effect Vp” value [2] was 5 (Weed-killing rate is 100%.), the “Herbicidal effect Ga” value [3] was 5 (Weed-killing rate is 100%.) and the “Herbicidal effect Am” value [4] was 5 (Weed-killing rate is 100%.). The “Herbicidal effect At” value [5] was 5 (Weed-killing rate is 100%.), the “Herbicidal effect Xs” value [6] was 5 (Weed-killing rate is 100%.) and the “Post-emergence treatment Barnyard grass” value [7] was 5 (Weed-killing rate is 100%.). The “Post-emergence treatment Bulrush” value [8] was 5 (Weed-killing rate is 100%.), the “Post-emergence treatment Monochoria” value [9] was 5 (Weed-killing rate is 100%.) and the “Herbicidal effect Ec” value [10] was 5 (Weed-killing rate is 100%.). For the same compound, the “Herbicidal effect Vp” value [11] was 5 (Weed-killing rate is 100%.), the “Herbicidal effect Ga” value [12] was 5 (Weed-killing rate is 100%.) and the “Herbicidal effect Am” value [13] was 5 (Weed-killing rate is 100%.). The “Herbicidal effect At” value [14] was 5 (Weed-killing rate is 100%.), the “Herbicidal effect Xs” value [15] was 5 (Weed-killing rate is 100%.) and the “Phytotoxicity So” value (soybean plant) was 4 (Crop-killing rate is 90-99%.). The “Phytotoxicity Wh” value (wheat) was 5 (Crop-killing rate is 100%.), the “Pre-emergence treatment Barnyard grass” value [16] was 5 (Weed-killing rate is 100%.) and the “Pre-emergence treatment Bulrush” value [17] was 5 (Weed-killing rate is 100%.).

In the case of `CCNC(=O)c1nc2ccsc2cc1C(=O)Nc1c(CC)ccc(Cl)c1CC` [compound 870], the “Phytotoxicity Wh” value (wheat (Wh)) is reported as 4 (Crop-killing rate is 90-99%.), the “Phytotoxicity So” value (soybean plant (So)) is reported as 3 (Crop-killing rate is 70-89%.) and the “Herbicidal effect Ec” value [1] is reported as 5 (Weed-killing rate is 100%.). The “Herbicidal effect Vp” value [2] was 5 (Weed-killing rate is 100%.), the “Herbicidal effect Ga” value [3] was 5 (Weed-killing rate is 100%.) and the “Herbicidal effect Am” value [4] was 5 (Weed-killing rate is 100%.). The “Herbicidal effect At” value [5] was 5 (Weed-killing rate is 100%.), the “Herbicidal effect Xs” value [6] was 5 (Weed-killing rate is 100%.) and the “Post-emergence treatment Barnyard grass” value [7] was 5 (Weed-killing rate is 100%.). The “Post-emergence treatment Bulrush” value [8] was 5 (Weed-killing rate is 100%.), the “Post-emergence treatment Monochoria” value [9] was 5 (Weed-killing rate is 100%.) and the “Herbicidal effect Ec” value [10] was 5 (Weed-killing rate is 100%.). For the same compound, the “Herbicidal effect Vp” value [11] was 5 (Weed-killing rate is 100%.), the “Herbicidal effect Ga” value [12] was 5 (Weed-killing rate is 100%.) and the “Herbicidal effect Am” value [13] was 5 (Weed-killing rate is 100%.). For the same compound, the “Herbicidal effect At” value [14] was 5 (Weed-killing rate is 100%.), the “Herbicidal effect Xs” value [15] was 5 (Weed-killing rate is 100%.) and the “Phytotoxicity So” value (soybean plant) was 3 (Crop-killing rate is 70-89%.). For the same compound, the “Phytotoxicity Wh” value (wheat) was 4 (Crop-killing rate is 90-99%.), the “Pre-emergence treatment Barnyard grass” value [16] was 5 (Weed-killing rate is 100%.) and the “Pre-emergence treatment Bulrush” value [17] was 5 (Weed-killing rate is 100%.).
